Laboratory results taken from article PMC5913971, “A Novel Piperazine-Based Drug Lead for Cryptosporidiosis from the Medicines for Malaria Venture Open-Access Malaria Box” (Antimicrobial Agents and Chemotherapy, 2018).

These compounds were tested on C. parvum Iowa isolate (assay: Immunofluorescence assay for C. parvum growth inhibition in HCT-8 cells). Details: Cryptosporidium parvum, HCT-8, read-out: C. parvum EC50 (95% CI).
Assay type: cell-based, Cryptosporidium parvum
Description: Inhibition of C. parvum growth was measured as described previously ([20]). Oocysts were excysted by treatment with 10 mM hydrochloric acid (10 min at 37°C), followed by exposure to 2 mM sodium taurocholate (Sigma-Aldrich) in PBS for 10 min at 16°C. Excysted oocysts were then added to >95% confluent HCT-8 cell monolayers in 384-well plates at a concentration of 5,500 Iowa isolate oocysts per well. For C. parvum field isolates, the inoculum required to yield an infection level similar to that produced by 5,500 Iowa isolate oocysts per well was determined and was used for subsequent assays of parasite inhibition. Compounds were added just before or 3 h after infection, and assay plates were incubated for 48 h postinfection at 37°C under 5% CO2. Wells were then washed three times with PBS containing 111 mM D-galactose, fixed with 4% paraformaldehyde in PBS for 15 min at room temperature, permeabilized with 0.25% Triton X-100 for 10 min at 37°C, washed three times with PBS with 0.1% Tween 20, and blocked with 4% bovine serum albumin (BSA) in PBS for 2 h at 37°C or 4°C overnight. Parasitophorous vacuoles were stained with 1.33 μg/ml of fluorescein-labeled Vicia villosa lectin (Vector Laboratories) diluted in 1% BSA in PBS with 0.1% Tween 20 for 1 h at 37°C, followed by the addition of Hoechst 33258 (AnaSpec) at a final concentration of 0.09 mM diluted in water for another 15 min at 37°C. Wells were then washed five times with PBS containing 0.1% Tween 20. A Nikon Eclipse TE2000 epifluorescence microscope with an automated stage was programmed using NIS-Elements Advanced Research software (Nikon, USA) to focus on the center of each well and take a 3-by-3 composite image using an EXi Blue fluorescence microscopy camera (QImaging, Canada) with a 20× objective (numerical aperture, 0.45). Nucleus and parasite images were exported separately as .tif files and were analyzed using macros developed on the ImageJ platform (National Institutes of Health) ([20]). The only modification from the published macro used to count parasites was that the lower size threshold for parasites was decreased from 16.5 to 4 pixels (1 pixel = 0.65 μm). Graphs were plotted, and half-maximal effective concentration (EC50) and 90% effective concentration (EC90) values were calculated using GraphPad Prism software, version 6.01. For every C. parvum field isolate experiment, a dose-response experiment against the C. parvum Iowa isolate was performed simultaneously as a reference.
In the case of `c1cc2nncn2nc1N1CCNCC1` [Compound D-53, N1CCN(CC1)c1ccc2n(n1)cnn2], the EC50 is reported as > 25 µM.

Same assay, conditions: Cryptosporidium parvum, HCT-8; Table S3, SAR of MMV665917; read-out: C. parvum EC50 (95% CI)
For `CN1CCN(c2ccc3nnc(C(F)(F)F)n3n2)CC1` [Compound D-2, CN1CCN(CC1)c1ccc2n(n1)c(nn2)C(F)(F)F], the EC50 was > 25 µM.
`FC(F)(F)c1nnc2ccc(N3CCN(Cc4ccccc4)CC3)nn12` [Compound D-3, FC(c1nnc2n1nc(cc2)N1CCN(CC1)Cc1ccccc1)(F)F] was tested, and the EC50 was > 25 µM.
With `CCOC(=O)N1CCN(c2ccc3nnc(C(F)(F)F)n3n2)CC1` [Compound D-4, CCOC(=O)N1CCN(CC1)c1ccc2n(n1)c(nn2)C(F)(F)F] the EC50 was > 25 µM.
For `c1ccc(N2CCN(c3ccc4nncn4n3)CC2)cc1` [Compound D-9, c1ccc(cc1)N1CCN(CC1)c1ccc2n(n1)cnn2], the EC50 was > 25 µM.
With `CC(=O)N1CCN(c2ccc3nnc(C(F)(F)F)n3n2)CC1` [Compound D-12, CC(=O)N1CCN(CC1)c1ccc2n(n1)c(nn2)C(F)(F)F] the EC50 was > 25 µM.
For `O=C(Nc1ccccc1)N1CCN(c2ccc3nncn3n2)CC1` [Compound D-18, O=C(N1CCN(CC1)c1ccc2n(n1)cnn2)Nc1ccccc1], the EC50 was > 25 µM.
For `O=C(Nc1ccc2c(c1)OCO2)N1CCN(c2ccc3nncn3n2)CC1` [Compound D-19, O=C(N1CCN(CC1)c1ccc2n(n1)cnn2)Nc1ccc2c(c1)OCO2], the EC50 was > 25 µM.
For `O=C(NC1CCCCC1)N1CCN(c2ccc3nncn3n2)CC1` [Compound D-20, O=C(N1CCN(CC1)c1ccc2n(n1)cnn2)NC1CCCCC1], the EC50 was > 25 µM.
`Cc1nnc2ccc(N3CCN(C(=O)NCc4ccccc4)CC3)nn12` [Compound D-21, O=C(N1CCN(CC1)c1ccc2n(n1)c(C)nn2)NCc1ccccc1] was tested, and the EC50 was > 25 µM.
In the case of `O=C(NC1CCCCC1)N1CCN(c2ccc3nnc(C4CC4)n3n2)CC1` [Compound D-22, O=C(N1CCN(CC1)c1ccc2n(n1)c(nn2)C1CC1)NC1CCCCC1], the EC50 is reported as > 25 µM.
For `O=S(=O)(c1ccc(Cl)cc1)N1CCN(c2ccc3nncn3n2)CC1` [Compound D-23, Clc1ccc(cc1)S(=O)(=O)N1CCN(CC1)c1ccc2n(n1)cnn2], the EC50 was > 25 µM.
In the case of `O=C(COc1ccc(F)cc1)N1CCN(c2ccc3nncn3n2)CC1` [Compound D-26, Fc1ccc(cc1)OCC(=O)N1CCN(CC1)c1ccc2n(n1)cnn2], the EC50 is reported as 20 µM.
`O=C(Nc1cccc(C(F)(F)F)c1)N1CCN(c2ccc3nncn3n2)CC1` [Compound D-27, O=C(N1CCN(CC1)c1ccc2n(n1)cnn2)Nc1cccc(c1)C(F)(F)F] showed an EC50 of 17 µM.
For `O=C(Nc1ccc(Cl)c(Cl)c1)N1CCN(c2ccc3nncn3n2)CC1` [Compound D-28, O=C(N1CCN(CC1)c1ccc2n(n1)cnn2)Nc1ccc(c(c1)Cl)Cl], the EC50 was 0.55 µM.
For `O=C(c1ccc(F)cc1)N1CCN(c2ccc3nnc(C4CC4)n3n2)CC1` [Compound D-29, Fc1ccc(cc1)C(=O)N1CCN(CC1)c1ccc2n(n1)c(nn2)C1CC1], the EC50 was > 25 µM.
In the case of `COc1ccc(N2CCN(c3ccc4nncn4n3)CC2)cc1` [Compound D-31, COc1ccc(cc1)N1CCN(CC1)c1ccc2n(n1)cnn2], the EC50 is reported as > 25 µM.
Compound `O=C(Nc1cc(Cl)ccc1Cl)N1CCN(c2ccc3nncn3n2)CC1` [Compound D-32, Clc1ccc(c(c1)NC(=O)N1CCN(CC1)c1ccc2n(n1)cnn2)Cl] has an EC50 of ~24.8 µM.
`CCOc1ccccc1NC(=O)N1CCN(c2ccc3nncn3n2)CC1` [Compound D-33, CCOc1ccccc1NC(=O)N1CCN(CC1)c1ccc2n(n1)cnn2] was tested, and the EC50 was > 25 µM.
In the case of `COc1ccc(C)cc1NC(=O)N1CCN(c2ccc3nncn3n2)CC1` [Compound D-34, COc1ccc(cc1NC(=O)N1CCN(CC1)c1ccc2n(n1)cnn2)C], the EC50 is reported as > 25 µM.
With `COc1cc(NC(=O)N2CCN(c3ccc4nncn4n3)CC2)cc(OC)c1` [Compound D-35, COc1cc(cc(c1)OC)NC(=O)N1CCN(CC1)c1ccc2n(n1)cnn2] the EC50 was > 25 µM.
With `CC(C)c1ccc(NC(=O)N2CCN(c3ccc4nncn4n3)CC2)cc1` [Compound D-36, O=C(N1CCN(CC1)c1ccc2n(n1)cnn2)Nc1ccc(cc1)C(C)C] the EC50 was > 25 µM.
In the case of `O=C(Nc1cc(F)ccc1F)N1CCN(c2ccc3nncn3n2)CC1` [Compound D-37, Fc1ccc(c(c1)NC(=O)N1CCN(CC1)c1ccc2n(n1)cnn2)F], the EC50 is reported as > 25 µM.
`O=C(Nc1ccc(F)c(Cl)c1)N1CCN(c2ccc3nncn3n2)CC1` [Compound D-38, O=C(N1CCN(CC1)c1ccc2n(n1)cnn2)Nc1ccc(c(c1)Cl)F] showed an EC50 of 12 µM.
For `COc1ccc(OC)c(NC(=O)N2CCN(c3ccc4nncn4n3)CC2)c1` [Compound D-40, COc1ccc(cc1NC(=O)N1CCN(CC1)c1ccc2n(n1)cnn2)OC], the EC50 was > 25 µM.
Compound `O=C(COc1cccc(Cl)c1)N1CCN(c2ccc3nncn3n2)CC1` [Compound D-41, Clc1cccc(c1)OCC(=O)N1CCN(CC1)c1ccc2n(n1)cnn2] has an EC50 of 18 µM.
With `O=C(Cc1ccccc1Cl)N1CCN(c2ccc3nncn3n2)CC1` [Compound D-42, O=C(N1CCN(CC1)c1ccc2n(n1)cnn2)Cc1ccccc1Cl] the EC50 was > 25 µM.
With `O=C(Nc1ccc(F)c(Cl)c1)N1CCN(c2ccc3nnc(C4CC4)n3n2)CC1` [Compound D-43, O=C(N1CCN(CC1)c1ccc2n(n1)c(nn2)C1CC1)Nc1ccc(c(c1)Cl)F] the EC50 was > 25 µM.
Work on `CN(C)S(=O)(=O)c1ccc(C(=O)N2CCN(c3ccc4nncn4n3)CC2)cc1` [Compound D-44, O=C(c1ccc(cc1)S(=O)(=O)N(C)C)N1CCN(CC1)c1ccc2n(n1)cnn2] yielded an EC50 of 7.1 µM.
For `NS(=O)(=O)c1ccc(C(=O)N2CCN(c3ccc4nncn4n3)CC2)cc1` [Compound D-45, O=C(c1ccc(cc1)S(=O)(=O)N)N1CCN(CC1)c1ccc2n(n1)cnn2], the EC50 was > 25 µM.
For `O=C(c1ccc(Cl)cc1)N1CCN(c2ccc3nncn3n2)CC1` [Compound D-46, Clc1ccc(cc1)C(=O)N1CCN(CC1)c1ccc2n(n1)cnn2], the EC50 was > 25 µM.
`O=C(c1cc(Cl)ccc1Cl)N1CCN(c2ccc3nncn3n2)CC1` [Compound D-47, Clc1ccc(c(c1)C(=O)N1CCN(CC1)c1ccc2n(n1)cnn2)Cl] was tested, and the EC50 was > 25 µM.
For `O=C(c1ccc(S(=O)(=O)N2CCCC2)cc1)N1CCN(c2ccc3nncn3n2)CC1` [Compound D-48, O=C(c1ccc(cc1)S(=O)(=O)N1CCCC1)N1CCN(CC1)c1ccc2n(n1)cnn2], the EC50 was > 25 µM.
`O=C(Cc1noc2ccccc12)N1CCN(c2ccc3nncn3n2)CC1` [Compound D-49, O=C(N1CCN(CC1)c1ccc2n(n1)cnn2)Cc1noc2c1cccc2] was tested, and the EC50 was > 25 µM.
For `O=C(COc1ccc(Cl)cc1Cl)N1CCN(c2ccc3nncn3n2)CC1` [Compound D-50, Clc1ccc(c(c1)Cl)OCC(=O)N1CCN(CC1)c1ccc2n(n1)cnn2], the EC50 was 16 µM.
With `CC(Oc1ccc(Cl)cc1Cl)C(=O)N1CCN(c2ccc3nncn3n2)CC1` [Compound D-51, Clc1ccc(c(c1)Cl)OC(C(=O)N1CCN(CC1)c1ccc2n(n1)cnn2)C] the EC50 was > 25 µM.
With `Cc1nnc2ccc(N3CCN(C(=O)OC(C)(C)C)CC3)nn12` [Compound D-60, O=C(N1CCN(CC1)c1ccc2n(n1)c(C)nn2)OC(C)(C)C] the EC50 was > 25 µM.
With `O=C(Nc1ccc(Cl)c(Cl)c1)N1CCN(c2ccccc2)CC1` [Compound D-74, O=C(Nc1ccc(Cl)c(Cl)c1)N2CCN(CC2)c3ccccc3] the EC50 was 20 µM.
Compound `O=C(Nc1ccc(C(F)(F)F)cc1)N1CCN(c2ccc3nncn3n2)CC1` [Compound D-75, FC(F)(F)c1ccc(cc1)NC(=O)N2CCN(CC2)c3ccc4nncn4n3] has an EC50 of 11 µM.
With `O=C(Nc1ccc(OC(F)(F)F)cc1)N1CCN(c2ccc3nncn3n2)CC1` [Compound D-76, FC(F)(F)Oc1ccc(cc1)NC(=O)N2CCN(CC2)c3ccc4nncn4n3] the EC50 was > 25 µM.

Same assay, conditions: Cryptosporidium parvum; inside HCT-8 cells, 48 h incubation; Fig. 1; read-out: EC50, anti-C. parvum dose response
For `O=C(COc1cccc(Cl)c1)N1CCN(c2ccc3nncn3n2)CC1` [Compound D-41, Clc1cccc(c1)OCC(=O)N1CCN(CC1)c1ccc2n(n1)cnn2], the EC50 was ~18 µM.
